# Measured values published in article PMC5428013, “Peptide-Au Clusters Induced Tumor Cells Apoptosis via Targeting Glutathione Peroxidase-1: The Molecular Dynamics Assisted Experimental Studies” (Scientific Reports, 2017).
# Key:
# Hela cells = assay: Cell viability assay (CCK-8), Hela; type: cell-based; settings: same condition as A549
# Method: Briefly, cells were prior cultured on 96-well plates (at the density of 5 × 10^3 cells/well) for 24 h to allow cells attachment. The cells were treated with different doses of these free peptides (0, 1, 4, 16, 64, 256, 1024 µM) and peptide-Au clusters (0, 50, 100, 200, 400, 800 µM in Au dose) for 48 h, respectively. The cells were washed three times with PBS and then incubated with fresh growth medium containing 10% (v/v) CCK-8 reagent for 1 h at 37 °C for cell viability assay. The absorbance was measured at 450 nm by using a microplate reader (SpectraMAX M2, Sunnyvale, California). Cell viability of untreated cells was set as 100%, and that of treated cells were expressed as a relative percentage of untreated cells. All data were shown as mean percentages ± standard deviation from three independent experiments.
# A549 cells [1] = assay: Uptake of Au25P1_9 by A549 cells determined by ICP-MS; type: cell-based, human; settings: Au dose 0, 100, 200, 400, 800 μM, 48 h
# Method: The cells were cultured in medium supplemented with 10% fetal bovine serum and 1% penicillin and streptomycin in a culture flask (25 cm^2), reseeded every 2–4 days to maintain subconfluency and kept in humidified atmosphere of 95% air and 5% CO2 at 37 °C. After cells reaching 80% confluence during the exponential growth in culture flask, the cells were harvested and subcultured on 6-well plate (at the density of 1 × 10^5 cells/well) for 24 h. Then the medium was discarded and fresh culture medium with Au25P1_9 at different doses was added to make cells exposed to final Au doses at 0, 100, 200, 400 and 800 μM, respectively. After another 48 h incubation, the cells were treated with trypsin and collected, and then washed thrice with PBS. 5 × 10^5 cells of each sample counted by flow cytometry were predigested by HNO3 and H2O2 at a volume ratio of 3:1 for 12 h and further digested by aqua regia at 160 °C, and then diluted to 10 mL aqueous solution with 1% HCl and 2% HNO3. Finally, the amount of Au25P1_9 taken into cells was measured by ICP-MS with Au calibration curve.
# A549 cells [2] = assay: Apoptosis evaluation, Annexin V-FITC/PI dual staining; type: cell-based, human; settings: 48 h
# Method: Apoptosis detection with Annexin V-FITC/PI fluorescence dual staining was carried out by flow cytometry. Briefly, about 2 mL of 1 × 10^5 cells/mL of A549 cells were seeded in 6-well plate for 24 h before treatment with Au25P1_9 at different Au doses. The cells were treated with Au25P1_9 (Au dose at 0, 100, 200, 400 and 800 μM) for 48 h, respectively. Then culture medium and cells in each well were collected and centrifuged at 1200 rpm for 3 min. The supernatant was discarded and the cells were washed twice with PBS. 195 μL Annexin V-FITC binding buffer was added to re-suspend the cells at a dose of ~5 × 10^5 cells/mL in 1.5 mL Eppendorf tube. 5 μL Annexin V-FITC and 10 μL PI stains were added into each cell suspension, respectively. The tubes were incubated at room temperature under darkness for exactly 15 min. The fluorescence of the cells was determined immediately with flow cytometer. Cells at the early stage of apoptotic process were stained with the Annexin V-FITC alone. Necrotic cells were stained by both the Annexin V-FITC and PI. […] So, the percentage of apoptotic and necrosis cells can be analyzed by Cflow software.
# caspase-3 = assay: Caspase-3 activity assay (Nucview488, CLSM); type: cell-based, human; settings: 800 µM Au, 48 h, 5 µM Nucview488 substrate
# Method: A549 cells were seeded on glass-bottom dishes for 24 h, and the Au25P1_9 was added to culture medium and final Au dose was 800 µM. A549 cells were next exposed to Au25P1_9 for 48 h. Then the cells were washed three times with PBS and incubated with 5 µM Nucview488 caspase-3 substrate (which can be cleaved by caspase-3 and release the DNA dye to stain DNA with bright green fluorescence during apoptosis) at room temperature for 30 min. Finally, cells were washed with PBS and observed by CLSM with excitation at wavelengths of 488 nm.
# A549 cells [3] = assay: Cellular location observed by CLSM; type: cell-based, human; settings: 800 µM Au, 48 h, live A549 cells
# Method: A549 cells were seeded on glass-bottom dishes (35 mm, MatTek Corporation) for confocal laser scanning microscopy (CLSM) observation. After 24 h, Au25P1_9 was added to culture medium and the final Au dose was 800 µM. The A549 cells were next exposed to Au25P1_9 for 48 h. Then the cells were washed three times with PBS and incubated with 10 µg/mL Hoechst 33342 at 37 °C under darkness for 10 min. Before observation, the culture medium was discarded and the cells were washed three times with PBS, supplemented with fresh culture medium. Finally, in A549 cells, the cell nucleus and Au25P1_9 were imaged under Nikon Ti-e microscope with excitation at wavelengths of 405 nm and 560 nm, respectively. To identify the accurate location of Au25P1_9 in cytoplasm of A549 cells, lysotracker green, a lysosome probe, was added in the medium after cells were incubated with Au25P1_9 for 48 h. The cells were then observed by CLSM with excitation at wavelengths of 488 nm and 560 nm, respectively.
sequence,measurement,setting,value
"CCYGGPEEEEEVG [Au25P1_9, Au25 cluster coated by nine P1 peptides (…)]",change of cell viability,Hela cells,almost negligible
same,cellular uptake,A549 cells [1],dosage dependent manner
same,cell apoptosis ratio,"A549 cells [2]; A549, Au25P1_9 dose 100 μM (Au)",5.8%
same,cell apoptosis ratio,"A549 cells [2]; A549, Au25P1_9 dose 800 μM (Au)",15.2%
same,cell apoptosis dose dependence,"A549 cells [2]; A549, Au dose 0, 100, 200, 400, 800 μM",dose-dependent manner
same,caspase-3 activation,caspase-3,strong Nucview488 emission
same,cellular location,A549 cells [3],red emission can be observed in the cytoplasm of live A549 cells
